Data: patent publication US7151175B2, “Propenecarboxylic acid amidoxime derivatives, a process for the preparation thereof, and pharmaceutical compositions containing the same” (N-Gene Research Laboratories Inc., priority 2000, dated 2006)
Structures can show the parent of a compound that is named as a salt.

Experiments:
[1] = molecular target: T1, poly(adenosine diphosphate ribose)polymerase (PARP) (Rattus norvegicus, UniProt P27008); experiment: Determination of PARP inhibition, in vitro, on isolated enzyme; type: biochemical; conditions: PARP isolated from rat liver; four parallel measurements; read-out: PARP I0.5 (converted)
T1 construct: was isolated from rat liver according to the article of Shah, G. M; from tissue; host or cells: rat liver
T1 sequence (P27008 whole entry): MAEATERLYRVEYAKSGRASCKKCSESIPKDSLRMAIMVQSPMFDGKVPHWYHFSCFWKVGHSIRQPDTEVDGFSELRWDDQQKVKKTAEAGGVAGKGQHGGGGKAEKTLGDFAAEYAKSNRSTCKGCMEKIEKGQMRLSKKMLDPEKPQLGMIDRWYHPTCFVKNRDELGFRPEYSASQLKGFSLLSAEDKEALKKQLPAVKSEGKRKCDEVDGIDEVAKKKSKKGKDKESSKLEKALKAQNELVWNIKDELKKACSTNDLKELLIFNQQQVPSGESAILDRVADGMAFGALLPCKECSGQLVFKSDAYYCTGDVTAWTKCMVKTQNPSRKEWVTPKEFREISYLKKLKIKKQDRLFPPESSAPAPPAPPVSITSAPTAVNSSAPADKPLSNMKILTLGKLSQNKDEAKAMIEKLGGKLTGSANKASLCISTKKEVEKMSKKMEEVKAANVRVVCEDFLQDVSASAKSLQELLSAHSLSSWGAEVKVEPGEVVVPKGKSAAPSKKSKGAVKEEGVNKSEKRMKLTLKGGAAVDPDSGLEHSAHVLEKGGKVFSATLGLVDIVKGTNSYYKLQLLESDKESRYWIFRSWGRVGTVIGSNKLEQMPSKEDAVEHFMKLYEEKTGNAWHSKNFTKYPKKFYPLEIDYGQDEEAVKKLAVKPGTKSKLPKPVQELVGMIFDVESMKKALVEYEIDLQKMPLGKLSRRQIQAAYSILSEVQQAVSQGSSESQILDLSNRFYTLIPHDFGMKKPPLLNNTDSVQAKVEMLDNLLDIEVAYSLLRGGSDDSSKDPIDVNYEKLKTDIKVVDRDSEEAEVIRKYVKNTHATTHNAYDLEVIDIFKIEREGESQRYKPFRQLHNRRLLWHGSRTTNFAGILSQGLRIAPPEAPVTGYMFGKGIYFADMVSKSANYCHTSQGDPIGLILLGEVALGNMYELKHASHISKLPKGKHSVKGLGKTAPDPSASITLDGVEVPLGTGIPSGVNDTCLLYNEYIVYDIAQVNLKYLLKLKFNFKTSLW
Experimental: The poly(adenosine diphosphate ribose)polymerase was isolated from rat liver according to the article of Shah, G. M. [Anal. Biochem., 227, 1–13 (1995)]. The PARP activity was determined in 130 μl of reaction mixture consisting of 100 mM of tris-HCl buffer, pH 8.0, 10 mM of MgCl2, 10% glycerol, 1.5 mM of DTT, 100 μg of (32P) or (3H) NAD+, 10 μg of activated DNA, 10 μg of histone. [Tris-HCl is tris(hydroxymethyl)aminomethane hydrochloride.] After 10 minutes of incubation time, the reaction was stopped with 8% perchloric acid, and the protein was separated through centrifugation (10 minutes, 10.000×g). The precipitate was washed with 8% perchloric acid three times, and the radioactivity bound to the protein was measured with a scintillation counter.

male NMRI mice = experiment: Hepatotoxicity induced by acetaminophene (paracetamol); type: in vivo, mouse; conditions: dose of 50 mg/kg
Experimental: It was examined whether the liver damage induced with paracetamol can be prevented by the novel compounds of the formula I. The symptom of liver damage was characterized by an increase of the GOT and […] enzyme levels induced with paracetamol. The experiments were carried out on male NMRI mice of 30–40 g body weight. The animals were pretreated with the compounds of the formula I, perorally, for 7 days. On day 8, the mice were subjected to starvation for 12 hours, then a 500 mg/kg p.o. dose of paracetamol and a given dose of a compound of the formula I were administered. After 16 hours, the animals were bled to death and the activity of the GOT and GPT enzymes was measured in the serum. The results were analyzed by the non-parametric test of Mann and Whitney. As to the results, the average and the standard deviation are given wherein p<0.05 was considered as significant.

conscious rabbits = experiment: Hyperinsulinaemic euglycaemic clamp studies (insulin sensitivity); type: in vivo, rabbit
Experimental: It was investigated whether treatment with the compounds of the invention effected insulin sensitivity of normal and hypercholesterolaemic conscious rabbits. Adult male white New Zealand rabbits weighing 3–3.5 kg, housed in an animal room (12-hour light/dark periods a day, temperature of 22–25° C., humidity of 50–70%), fed commercial laboratory chow and tap water ad libitum were used throughout. The experimental period commenced after a two-week adaptation period. The rabbits were randomized into two main groups. Half of the animals were continued to feed normal rabbit chow, whereas the second group animals were fed chow enriched with 1.5% cholesterol over a period of eight week. Each main group was divided into four treatment groups: • untreated group, • group treated with a compound of the invention, 10 mg/kg i.v. dose twice a day over 4 days, • group treated with 7-nitroindazole as NOS inhibitor: administration of 5 mg/kg of 7-nitroindazole over 5 min. preceded insulin administration with a 5-min inter-infusion interval, • group treated with both 7-nitroindazole and the compound of the invention as described.
The animals were anaesthetized and polyethylene catheters were inserted into two major branches of the right jugular vein and the left carotid artery. The catheters were exteriorized through the back of the neck and filled with physiological saline containing heparin. […]

C57BI mice = experiment: Experimental model of Parkinson's disease (MPTP); type: in vivo, mouse; conditions: four times 20 mg/kg MPTP intraperitoneally
Source text: Parkinson's disease (PD) is a common disabling idiopathic neurodegenerative disorder characterized by tremor, bradykinesia, rigidity and balance difficulties. These motor abnormalities are caused by the depletion of brain dopamine that results from the loss of dopaminerg neurons in the substantia nigra pars compacta. The analysis of the action of 1-methyl-4-phenyl-1,2,3,6-tetrahydropyridine (MPTP) having selective neurotoxicity shed light to the possible patomechanism of the Parkinson's disease. MPTP induces parkinsonian motor signs in both human and animals [Dexter, A. et al., Ann. Neurol., 35, 38–44 (1994)]. MPTP treatment results in a loss of dopaminergic neurons in the substantia nigra pars compacta, as well. Lewy body-like eosinophilic inclusions appear in the damaged neurons and the activity of mitochondrial complex I is also diminished in these cells. These alterations are characteristic for oxidative stress [Shapira, A., Adv. Neurol., 69, 161–165 (1996)]. The biologically active metabolite of MPTP is MPP [1-methyl-4-phenylpyridinium]. MPP inhibits directly complex I in mitochondria leading to increased generation of superoxide anion. […] After centrifugation (14000×g, 10 min, 4° C.), 20 μl of supernatant were injected onto a reverse phase catecholamine column (ESA, Bedford) and dopamine content was evaluated. […]

male SPRD rats = experiment: Heart ischemic failure and reperfusion arrhythmia (LAD occlusion/reperfusion); type: in vivo, rat; conditions: 5 min LAD occlusion, 10 min reperfusion
Experimental: Experiments were carried out in male SPRD rats (acceptable body weight range: 300–350 g). The animals were anesthetized by the administration of pentobarbital [5-ethyl-5-(1-methylbutyl)-2,4,6-(1H,3H,5H)-pyrimidintrione] (60 mg/kg intraperitoneally), and remained breathing spontaneously. The animals were ventilated with a respirator (manufactured by Kutesz, Hungarian Academy of Sciences) by using a trachea cannule inserted after tracheotomy. The standard lead of the ECG II was monitored. The right femoral artery was catheterized and connected to a pressure transducer (BPR-01, Experimetria, Hungary) and a preamplifier. The pulsotachometer (HG-M, Experimetria, Hungary) was started by the pulsating signal of arterial blood pressure. The external jugular vein was cannulated for drug administration. After thoracotomy, a silk (braided, coated 4-0) was placed under the left anterior coronary (LAD) artery. After a few minutes' stabilization period, a 5 min occlusion of LAD artery was applied followed by a 10 min reperfusion period. ECG was recorded in the normal state at the start and in the above periods. From the data of ECG, the span of time of ventricular tachycardia and fibrillation was determined in sec. In addition, the survival ratios in the treated animal groups were recorded.

| Compound | IC50 [1] | other results |
| --- | --- | --- |
| O=[N+]([O-])c1cccc2cn[nH]c12 [7-nitroindazole] |  | effect on the insulin resistance ameliorating effect of the compounds of the invention (conscious rabbits; experimental hypercholesterolaemia): blocked the insulin resistance ameliorating effect; insulin resistance produced by the substance itself (conscious rabbits; normal animals, 5 mg/kg 7-nitroindazole): produced insulin resistance |
| CN1CC=C(c2ccccc2)CC1 [MPTP, 1-methyl-4-phenyl-1,2,3,6-tetrahydropyridine] |  | decrease in striatal dopamine content (C57BI mice): 80% |
| O=c1onc(C=Cc2ccccc2)n1CC(O)CN1CCCC1 (centres unmarked) [Example 3, 3-Styryl-4-(3-pyrrolidino-2-hydroxypropyl)-Δ^2-1,2,4-oxadiazolin-5-one-hydrochloride] | 25.4 µM |  |
| O=c1onc(C=Cc2ccccc2)n1CC(O)CN1CCOCC1 (centres unmarked) [Example 5, 3-Styryl-4-(3-morpholino-2-hydroxypropyl)-Δ^2-1,2,4-oxadiazolin-5-one hydrochloride] | 39.2 µM |  |
| CC(C)(C)NCC(O)Cn1c(C=Cc2ccccc2)noc1=O (centres unmarked) [Example 6, 3-Styryl-4-[3-(tert.-butylamino)-2-hydroxypropyl]-Δ^2-1,2,4-oxadiazolin-5-one hydrochloride] | 53.6 µM |  |
| O=c1onc(C=Cc2ccccc2)n1CC(O)CN1CCCCC1 (centres unmarked) [Example 2, 3-Styryl-4-(3-piperidino-2-hydroxipropyl)-Δ^2-1,2,4-oxadiazolin-5-one hydrochloride] | 27.3 µM | longer survival relative to the control group after reperfusion (male SPRD rats): 50% |
| Cc1cccc(C)c1NCC(O)Cn1c(C=Cc2ccccc2)noc1=O (centres unmarked) [Example 9, 3-Styryl-4-[3-(2,6-dimethylanilino)-2-hydroxypropyl]-Δ^2-1,2,4-oxadiazolin-5-one hydrochloride] | 19.2 µM |  |
| O=c1onc(C=Cc2ccccc2)n1CC(O)CN1CCc2ccccc2C1 (centres unmarked) [Example 8, 3-Styryl-4-[3-(1,2,3,4-tetrahydro-2-isoquinolyl)-2-hydroxypropyl]-Δ^2-1,2,4-oxadiazolin-5-one hydrochloride] | 31.8 µM |  |
| O=c1onc(C=Cc2ccccc2)n1CC(O)CN1CCCCCC1 (centres unmarked) [Example 4, 3-Styryl-4-(3-hexamethyleneimino-2-hydroxypropyl)-Δ^2-1,2,4-oxadiazolin-5-one hydrochloride] | 40.8 µM |  |

Continued, in another order:

| IC50 [1] | Compound | other results |
| --- | --- | --- |
| 71.9 µM | COc1ccc(C=Cc2noc(=O)n2CC(O)CN2CCCCC2)cc1OC (centres unmarked) [Example 10, 3-(3,4-Dimethoxystyryl)-4-(3-piperidino-2-hydroxypropyl)-Δ^2-1,2,4-oxadiazolin-5-one hydrochloride] |  |
| 59.3 µM | ON=C(C=Cc1ccccc1)NCC(O)CN1CCCCC1 (centres unmarked) [Example 12, N-(3-Piperidino-2-hydroxypropyl)cinnamic acid amidoxime] | hepatoprotective effect (male NMRI mice): very favourable hepatoprotective effect |
| 65.5 µM | ON=C(C=Cc1ccccc1)NCC(O)CN1CCOCC1 (centres unmarked) [Example 13, N-(3-Morpholino-2-hydroxypropyl)cinnamic acid amidoxime dihydrogen maleate] |  |
| 63.1 µM | C(=Cc1ccccc1)C1=NOC(CN2CCCCC2)CN1 (centres unmarked) [Example 16, 3-Styryl-6-(piperidinomethyl)-4H-5,6-dihydro-1,2,4-oxadiazine] |  |
| 28.3 µM | CN1CCN(CC(O)CNC(C=Cc2ccccc2)=NO)CC1 (centres unmarked) [Example 14, N-[3-(1-Methyl-4-piperazinyl)-2-hydroxypropyl]cinnamic acid amidoxime trihydrogen maleate] |  |
